The target of one assay is Human recombinant AChE (Homo sapiens, UniProt P22303). The experiment in a line: AChE inhibition, Ellman assay. The format is biochemical. On the technique in general: In Ellman's method for cholinesterases, released thiocholine reacts with DTNB.
A further assay concerns the target BChE from equine serum (Equus caballus, UniProt P81908). The experiment in a line: BChE inhibition, Ellman assay. The assay is classed as biochemical.
A further assay concerns SH-SY5Y cells. The experiment in a line: SRB cytotoxicity assay. The conditions noted are these: Homo sapiens, 48 h, read-out: GI50 ± SD. The format is cell-based. A general note: In SRB staining, fixed cells bind dye roughly in proportion to their protein.

Consider two molecules from PMC10500570 (ACS Omega, 2023).

Human recombinant AChE, sequence (P22303 32-614): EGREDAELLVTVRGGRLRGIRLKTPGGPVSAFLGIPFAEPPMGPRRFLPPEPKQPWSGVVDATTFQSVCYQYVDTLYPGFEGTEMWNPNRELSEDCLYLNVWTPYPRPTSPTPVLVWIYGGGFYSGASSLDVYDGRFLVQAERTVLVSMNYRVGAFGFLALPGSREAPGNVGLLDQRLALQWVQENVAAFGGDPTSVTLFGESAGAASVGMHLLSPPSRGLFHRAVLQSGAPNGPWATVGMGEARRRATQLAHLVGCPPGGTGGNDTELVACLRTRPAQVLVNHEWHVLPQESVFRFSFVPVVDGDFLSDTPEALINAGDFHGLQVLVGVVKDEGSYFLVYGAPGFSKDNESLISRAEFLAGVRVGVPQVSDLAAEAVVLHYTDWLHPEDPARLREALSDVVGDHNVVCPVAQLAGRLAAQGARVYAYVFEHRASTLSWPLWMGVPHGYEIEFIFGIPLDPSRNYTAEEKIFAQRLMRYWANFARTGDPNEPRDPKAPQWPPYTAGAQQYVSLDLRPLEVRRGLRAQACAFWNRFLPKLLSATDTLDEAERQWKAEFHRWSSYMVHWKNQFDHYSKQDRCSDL
BChE from equine serum, sequence (P81908 whole entry): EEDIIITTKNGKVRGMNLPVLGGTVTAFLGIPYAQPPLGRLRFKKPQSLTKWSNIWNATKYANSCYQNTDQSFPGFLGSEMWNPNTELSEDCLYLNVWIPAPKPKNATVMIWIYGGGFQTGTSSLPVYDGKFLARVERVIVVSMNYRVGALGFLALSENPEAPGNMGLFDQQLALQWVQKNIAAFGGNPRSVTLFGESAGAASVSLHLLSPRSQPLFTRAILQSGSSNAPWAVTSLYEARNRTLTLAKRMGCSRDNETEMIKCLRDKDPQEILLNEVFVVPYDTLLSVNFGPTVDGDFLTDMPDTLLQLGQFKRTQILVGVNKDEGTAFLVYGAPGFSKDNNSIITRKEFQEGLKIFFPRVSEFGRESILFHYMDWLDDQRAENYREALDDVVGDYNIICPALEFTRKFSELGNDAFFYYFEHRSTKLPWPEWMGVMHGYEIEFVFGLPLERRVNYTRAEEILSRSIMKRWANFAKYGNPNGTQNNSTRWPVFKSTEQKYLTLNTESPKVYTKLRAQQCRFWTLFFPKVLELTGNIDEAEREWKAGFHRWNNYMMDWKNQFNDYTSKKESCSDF

Usually IC50 stands for the concentration that inhibits the measured activity by half. A word on the GI50: it is the concentration that inhibits growth by half. Regarding `O=C1C=C(OCCCCCCn2cc(CNc3ccc4ncc(-c5ccccc5)nc4c3)nn2)C(=O)c2ccccc21` [Compound 7c], the IC50 on Human recombinant AChE and at BChE from equine serum was more than 100 µM in each case. The GI50 with SH-SY5Y cells is more than 100 µM.
Turning to `O=C1C=C(OCCCCCCCCn2cc(CNc3ccc4ncc(-c5ccccc5)nc4c3)nn2)C(=O)c2ccccc21` [Compound 7d], the IC50 is more than 100 µM at Human recombinant AChE and 4.4 ± 0.4 µM against BChE from equine serum. Moreover, the “SI (selectivity index)” value on Human recombinant AChE (Selectivity index = BChE IC50/AChE IC50) is given as less than 0.044. Also, the GI50 in the assay on SH-SY5Y cells is more than 100 µM.
